This note sets out measurements from patent publication US10508109B2 (priority 2015, dated 2019).

Broadly, the IC50 is the midpoint of a concentration-inhibition curve.

One assay deals with A549. Kind of assay: Cell-based assay, anti-proliferative activity (Cell Counting Kit-8, 72 hours). Conditions: Homo sapiens, read-out: IC50 (μM) A549. In a few lines: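 Cells were seeded in 96-well plates and exposed to candidate inhibitors. Cellular growth was then determined with the colorimetric kit, and IC50 values were calculated from the growth data.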
On the technique in general: Formazan colour is commonly taken as a measure of viable cells.

In the next assay the test system is CCD-18Co. The assay is described as above. Particulars: Homo sapiens, read-out: IC50 (μM) CCD-18Co. In a few lines:
(§1)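 Cells were seeded in 96-well plates and exposed to the inhibitors for 72 hours, after which growth was measured with Cell Counting Kit-8. IC50 was derived from a serial dilution series of 0, 1.5625, 3.125, 6.25, 12.5, 25, 50 and 100 micro-M.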

For a further assay, the system named is HCT-116. Described as above. Conditions: Homo sapiens, read-out: IC50 (μM) HCT-116. A digest of the protocol:
as §1

Another assay relates to HFL1. Described as above. Conditions: Homo sapiens, read-out: IC50 (μM) HFL1. In a few lines:
as §1

In another assay the test system is PC14. The assay is described as above. Particulars: Homo sapiens, read-out: IC50 (μM) PC14. A digest of the protocol:
as §1

In a further assay the target is SUV39H2 (Homo sapiens (Human), UniProt Q9H5I1). Conditions: read-out: IC50 (μM) Suv 39H2 assay; enzyme assay.
Where [1] appears, read: A549 cells, Cell Counting Kit-8, 72 hours.
Setting [2] is: CCD-18Co cells, Cell Counting Kit-8, 72 hours.
Setting [3] is: HCT-116 cells, Cell Counting Kit-8, 72 hours.
Setting [4] is: HFL1 cells, Cell Counting Kit-8, 72 hours.
Setting [5] is: PC-14, PC14 cells, Cell Counting Kit-8, 72 hours.
Where [6] appears, read: A549 cells, 72 hours, Cell Counting Kit-8.
Setting [7] is: CCD-18Co cells, 72 hours, Cell Counting Kit-8.
Where [8] appears, read: HCT-116 cells, 72 hours, Cell Counting Kit-8.
[9] abbreviates: HFL1 cells, 72 hours, Cell Counting Kit-8.
[10] abbreviates: PC-14, PC14 cells, 72 hours, Cell Counting Kit-8.

Each structure is given as a SMILES string. Like-named read-outs stand apart in the source and are kept apart here.

Chain of SUV39H2 (Q9H5I1 whole entry): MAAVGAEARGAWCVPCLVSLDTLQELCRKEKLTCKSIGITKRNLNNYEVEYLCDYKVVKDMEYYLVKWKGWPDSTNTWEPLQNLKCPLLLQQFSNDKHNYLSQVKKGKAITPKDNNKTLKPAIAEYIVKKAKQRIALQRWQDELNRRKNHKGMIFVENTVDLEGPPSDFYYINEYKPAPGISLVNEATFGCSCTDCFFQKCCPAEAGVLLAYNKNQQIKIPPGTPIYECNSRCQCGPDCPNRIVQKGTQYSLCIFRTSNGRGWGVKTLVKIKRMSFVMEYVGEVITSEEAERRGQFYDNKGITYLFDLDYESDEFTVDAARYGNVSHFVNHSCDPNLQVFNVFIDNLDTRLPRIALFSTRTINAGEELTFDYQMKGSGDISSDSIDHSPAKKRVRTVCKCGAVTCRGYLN

As for `COc1cc(OC)c(-c2cn3ccc(N4CCC(CN(C)C)CC4)cc3n2)cc1Cl` [Example 97, 1-(1-(2-(5-Chloro-2,4-dimethoxyphenyl)imidazo[1,2-a]pyridin-7-yl)piperidin-4-yl)-N,N-dimethylmethanamine], the IC50 came out at 3.2 µM with A549 (setting [1]); 6.5 µM with CCD-18Co (setting [2]); 2.8 µM in the assay with HCT-116 (setting [3]); 2.4 µM in the assay on HFL1 (setting [4]); 2.3 µM in the assay on PC14 (setting [5]); 0.00768 µM on SUV39H2.
Consider `COc1cc(OCCCN(C)C)c(-c2cn3ccc(N4CCC(NS(=O)(=O)C5CC5)CC4)cc3n2)cc1Cl` [Example 163, N-(1-(2-(5-chloro-2-(3-(dimethylamino)propoxy)-4-methoxyphenyl)imidazo-[1,2-a]pyridin-7-yl)piperidin-4-yl)cyclopropanesulfonamide], for which the IC50 in the assay on A549 (setting [1]) came to 6.4 µM; in the assay on CCD-18Co (setting [2]), 5.6 µM; in the assay on HCT-116 (setting [3]), 5.9 µM; in the assay with HFL1 (setting [4]), 2.7 µM; with PC14 (setting [5]), 3.4 µM; on SUV39H2, 0.0206 µM.
For the compound `CCCS(=O)(=O)N1CCN(c2ccn3cc(-c4cc(Cl)c(OC)cc4OC)nc3n2)CC1` [Example 191, 2-(5-chloro-2,4-dimethoxyphenyl)-7-[4-(propylsulfonyl)piperazin-1-yl]-imidazo[1,2-a]pyrimidine], the half-inhibitory concentration (IC50) with A549 (setting [1]) amounted to 1.5 µM; in the assay with CCD-18Co (setting [2]), 3.2 µM; in the assay on HCT-116 (setting [3]) it was 1.9 µM; with HFL1 (setting [4]), 2 µM; in the assay with PC14 (setting [5]), 1.5 µM; on SUV39H2, 0.0293 µM.
For `COc1cc(OC)c(-c2cn3ccc(N4CC[C@H](NCc5ccc(F)cc5)C4)cc3n2)cc1Cl` [Example 302, (S)-1-(2-(5-chloro-2,4-dimethoxyphenyl)imidazo[1,2-a]pyridin-7-yl)-N-(4-fluorobenzyl)pyrrolidin-3-amine], the half-maximal inhibitory concentration (IC50) in the assay on A549 (setting [6]) was found to be 1.5 µM; in the assay with CCD-18Co (setting [7]), 1.1 µM; in the assay on HCT-116 (setting [8]), 0.92 µM; with HFL1 (setting [9]), 0.72 µM; with PC14 (setting [10]), 1.4 µM; at SUV39H2 it was 0.0153 µM.
On to `COc1cc(OC)c(-c2cn3ccc(N4CCC(CNS(=O)(=O)C5CC5)CC4)cc3n2)cc1Cl` [Example 149, N-((1-(2-(5-Chloro-2,4-dimethoxyphenyl)imidazo[1,2-a]pyridin-7-yl)piperidin-4-yl)methyl)cyclopropanesulfonamide], for which the IC50 amounted to 2.5 µM in the assay on A549 (setting [1]); 4.8 µM in the assay with CCD-18Co (setting [2]); 2.3 µM in the assay with HCT-116 (setting [3]); 1.9 µM with HFL1 (setting [4]); 2.4 µM in the assay on PC14 (setting [5]); 0.00672 µM on SUV39H2.
On to `COc1cc(OC)c(-c2cn3ccc(N4CCC(NS(C)(=O)=O)CC4)cc3n2)cc1Cl` [Example 128, N-{1-[2-(5-chloro-2,4-dimethoxyphenyl)imidazo[1,2-a]pyridin-7-yl]piperidin-4-yl}methanesulfonamide], for which the IC50 in the assay with A549 (setting [1]) amounted to 1.5 µM; with CCD-18Co (setting [2]), 1.1 µM; in the assay with HCT-116 (setting [3]) it was 4.5 µM; with HFL1 (setting [4]) it was 0.58 µM; in the assay with PC14 (setting [5]), 1.8 µM; on SUV39H2 it was 0.00883 µM.
With `COc1cc(OC)c(-c2cn3ccc(-c4ccc(C(=O)N5CCNCC5)cc4)cc3n2)cc1Cl` [Example 254, (4-(2-(5-chloro-2,4-dimethoxyphenyl)imidazo[1,2-a]pyridin-7-yl)-phenyl)(piperazin-1-yl)methanone], the concentration for half-maximal inhibition (IC50) is 2.7 µM in the assay with A549 (setting [6]); 3.1 µM in the assay with CCD-18Co (setting [7]); 2.6 µM in the assay with HCT-116 (setting [8]); 2.8 µM with HFL1 (setting [9]); 0.99 µM with PC14 (setting [10]); 0.0383 µM at SUV39H2.
`COc1cc(OC)c(-c2cn3ccc(N4CCC(NC(C)=O)CC4)cc3n2)cc1Cl` [Example 124, N-{1-[2-(5-chloro-2,4-dimethoxyphenyl)imidazo[1,2-a]pyridin-7-yl]piperidin-4-yl}acetamide]: the IC50 in the assay with A549 (setting [1]) came out at 2.2 µM; in the assay with CCD-18Co (setting [2]) it was 3.1 µM; in the assay with HCT-116 (setting [3]), 1.9 µM; in the assay with HFL1 (setting [4]) it was 3.1 µM; with PC14 (setting [5]), 1.9 µM; at SUV39H2, 0.00327 µM.
As to `COc1cc(OC)c(-c2cn3ccc(N4CCN(S(=O)(=O)C(C)C)CC4)nc3n2)cc1Cl` [Example 205, 2-(5-chloro-2,4-dimethoxyphenyl)-7-[4-(isopropylsulfonyl)piperazin-1-yl]imidazo[1,2-a]pyrimidine], the IC50 in the assay on A549 (setting [1]) turned out to be 1.2 µM; in the assay on CCD-18Co (setting [2]), 3.1 µM; in the assay with HCT-116 (setting [3]) it was 1.9 µM; with HFL1 (setting [4]) it was 2 µM; with PC14 (setting [5]), 0.62 µM; at SUV39H2 it was 0.0291 µM.
`COc1cc(OCCCN(C)C)c(-c2cn3ccc(N4CCC(NC(=O)OC(C)(C)C)CC4)cc3n2)cc1Cl` [Example 148, tert-butyl (1-(2-{5-chloro-2-[3-(dimethylamino)propoxy]-4-methoxyphenyl}imidazo[1,2-a]pyridin-7-yl)piperidin-4-yl)carbamate]: the IC50 was 1.8 µM in the assay on A549 (setting [1]); 0.78 µM in the assay with CCD-18Co (setting [2]); 1.3 µM in the assay on HCT-116 (setting [3]); 0.53 µM with HFL1 (setting [4]); 1.4 µM with PC14 (setting [5]); 0.0373 µM on SUV39H2.
Take `COc1cc(OC)c(-c2cn3cc(NCCNC(C)=O)c(N4CCOCC4)cc3n2)cc1Cl` [Example 224, N-(2-((2-(5-chloro-2,4-dimethoxyphenyl)-7-morpholinoimidazo[1,2-a]-pyridin-6-yl)amino)ethyl)acetamide]: the concentration for half-maximal inhibition (IC50) with A549 (A549, 72 h) was determined as 10 µM; with CCD-18Co (CCD-18Co, 72 h), 10 µM; in the assay on HCT-116 (HCT-116, 72 h) it was 10 µM; in the assay with HFL1 (HFL1, 72 h), 10 µM; with PC14 (PC-14, 72 h), 10 µM; at SUV39H2, 0.0337 µM.
Take `COc1cc(OCCN)c(-c2cn3ccc(N4CCN(S(=O)(=O)C5CC5)CC4)cc3n2)cc1Cl` [Example 234, 2-(4-chloro-2-(7-(4-(cyclopropylsulfonyl)piperazin-1-yl)imidazo[1,2-a]-pyridin-2-yl)-5-methoxyphenoxy)ethanamine]: the IC50 worked out at 10 µM with A549 (setting [6]); 6.1 µM in the assay with CCD-18Co (setting [7]); 5.3 µM in the assay with HCT-116 (setting [8]); 6.2 µM in the assay on HFL1 (setting [9]); 6.4 µM with PC14 (setting [10]); 0.0418 µM on SUV39H2.
On to `COc1cc(OCCCN(C)C)c(-c2cn3ccc(N4CCCN(S(=O)(=O)N(C)C)CC4)cc3n2)cc1Cl` [Example 216, 4-(2-{5-chloro-2-[3-(dimethylamino)propoxy]-4-methoxyphenyl}-imidazo[1,2-a]pyridin-7-yl)-N,N-dimethyl-1,4-diazepane-1-sulfonamide], for which the IC50 in the assay on A549 (setting [6]) stood at 1.9 µM; with CCD-18Co (setting [7]) it was 2.7 µM; in the assay with HCT-116 (setting [8]) it was 3.3 µM; in the assay on HFL1 (setting [9]), 1.5 µM; with PC14 (setting [10]) it was 1.6 µM; on SUV39H2, 0.0194 µM.
With `CCc1cc(OC)c(Cl)cc1-c1cn2ccc(N3CCNCC3)cc2n1` [Example 260, 2-(5-chloro-2-ethyl-4-methoxyphenyl)-7-(piperazin-1-yl)imidazo-[1,2-a]pyridine], the half-inhibitory concentration (IC50) in the assay with A549 (setting [6]) was determined as 6.1 µM; in the assay with CCD-18Co (setting [7]) it was 3.5 µM; in the assay with HCT-116 (setting [8]), 3.4 µM; with HFL1 (setting [9]), 3.6 µM; in the assay on PC14 (setting [10]) it was 3.4 µM; on SUV39H2, 0.0344 µM.
Regarding `COC(=O)N1CCN(c2ccn3cc(-c4cc(Cl)c(OC)cc4OCCCN(C)C)nc3c2)CC1` [Example 152, methyl 4-(2-(5-chloro-2-(3-(dimethylamino)propoxy)-4-methoxyphenyl)-imidazo[1,2-a]pyridin-7-yl)piperazine-1-carboxylate], the IC50 with A549 (setting [1]) was 6.4 µM; in the assay with CCD-18Co (setting [2]), 5.3 µM; with HCT-116 (setting [3]) it was 7.1 µM; with HFL1 (setting [4]) it was 1.9 µM; in the assay with PC14 (setting [5]) it was 2.7 µM; on SUV39H2, 0.0199 µM.
For `COc1cc(OC)c(-c2cn3ccc(NC(=O)CCN)cc3n2)cc1Cl` [Example 168, 3-amino-N-[2-(5-chloro-2,4-dimethoxyphenyl)imidazo[1,2-a]pyridin-7-yl]-propanamide], the concentration for half-maximal inhibition (IC50) in the assay on A549 (setting [1]) worked out at 39 µM; in the assay with CCD-18Co (setting [2]), 9.5 µM; with HCT-116 (setting [3]) it was 1.4 µM; in the assay on HFL1 (setting [4]) it was 2.7 µM; in the assay with PC14 (setting [5]), 6.2 µM; at SUV39H2, 0.0283 µM.
In the case of `COc1cc(OCCCN(C)C)c(-c2cn3ccc(N4CCC(N)CC4)cc3n2)cc1Cl` [Example 150, 1-(2-{5-chloro-2-[3-(dimethylamino)propoxy]-4-methoxyphenyl}-imidazo[1,2-a]pyridin-7-yl)piperidin-4-amine], the half-inhibitory concentration (IC50) in the assay on A549 (setting [1]) came to 2.3 µM; in the assay with CCD-18Co (setting [2]) it was 2.4 µM; in the assay on HCT-116 (setting [3]), 2.1 µM; in the assay with HFL1 (setting [4]) it was 0.86 µM; in the assay with PC14 (setting [5]), 2.2 µM; on SUV39H2, 0.035 µM.
